In article PMC11650849, “Brain endothelial permeability, transport, and flow assessed over 10 orders of magnitude using the in situ brain perfusion technique” (Fluids and Barriers of the CNS, 2024):
Read-outs that look alike come from different tables or passages of the source.

Assays:
[1] = Neutral fraction at pH 7.4 calculated from pKa; format: physicochemical
[2] = rat
[3] = ref Fenstermacher (papers of the 1990s and 2000s); cited from earlier work
[4] = in vivo; settings: rat, pH 7.4
[5] = cited from earlier work
[6] = rat in vivo measurements; cited from earlier work
[7] = rat; remark: listed apart in the source
[8] = cited from earlier work; for Log Poct: octanol partition coefficient
[9] = rat, in vivo; cited from earlier work
[10] = system: Choline transporter; settings: facilitated nutrients
[11] = Octanol/water partition and distribution coefficients; settings: for Log Doct 7.4: octanol distribution coefficient, pH 7.4; for Log Poct: octanol partition coefficient
[12] = biological target: T1, GLUT1 (Rattus norvegicus, UniProt P11167); assay: In situ brain perfusion, facilitated nutrient transport by GLUT1; format: in vivo; settings: facilitated nutrients
T1 construct: from tissue; host or cells: brain vascular endothelium (BBB) of the in situ perfused brain
T1 sequence (P11167 1-492): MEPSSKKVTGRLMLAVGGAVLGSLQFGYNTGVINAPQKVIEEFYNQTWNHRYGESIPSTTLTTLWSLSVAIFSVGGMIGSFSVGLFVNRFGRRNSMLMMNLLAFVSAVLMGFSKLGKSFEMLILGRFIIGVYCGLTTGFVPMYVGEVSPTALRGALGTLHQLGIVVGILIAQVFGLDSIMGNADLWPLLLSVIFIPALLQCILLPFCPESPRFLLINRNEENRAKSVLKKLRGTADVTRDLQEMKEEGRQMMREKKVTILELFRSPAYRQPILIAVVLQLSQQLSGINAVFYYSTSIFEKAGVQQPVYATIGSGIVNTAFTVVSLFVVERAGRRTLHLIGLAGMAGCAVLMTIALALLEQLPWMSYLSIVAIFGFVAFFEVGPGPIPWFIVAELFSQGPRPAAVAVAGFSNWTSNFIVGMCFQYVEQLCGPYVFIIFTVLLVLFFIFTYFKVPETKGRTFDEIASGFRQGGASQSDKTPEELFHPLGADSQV

[13] = pH 7.4
[14] = ref Chou and Rowland [106]; cited from earlier work
[15] = biological target: Lat-1 (Rattus norvegicus, UniProt Q63016)
[16] = biological target: MCT8 L-T3 Transporter (Rattus norvegicus, UniProt Q8K1P8)
[17] = biological target: T2, MAT1 (Rattus norvegicus, UniProt P53987); settings: facilitated nutrients, MAT1, S 30 s
T2 sequence (P53987 1-494): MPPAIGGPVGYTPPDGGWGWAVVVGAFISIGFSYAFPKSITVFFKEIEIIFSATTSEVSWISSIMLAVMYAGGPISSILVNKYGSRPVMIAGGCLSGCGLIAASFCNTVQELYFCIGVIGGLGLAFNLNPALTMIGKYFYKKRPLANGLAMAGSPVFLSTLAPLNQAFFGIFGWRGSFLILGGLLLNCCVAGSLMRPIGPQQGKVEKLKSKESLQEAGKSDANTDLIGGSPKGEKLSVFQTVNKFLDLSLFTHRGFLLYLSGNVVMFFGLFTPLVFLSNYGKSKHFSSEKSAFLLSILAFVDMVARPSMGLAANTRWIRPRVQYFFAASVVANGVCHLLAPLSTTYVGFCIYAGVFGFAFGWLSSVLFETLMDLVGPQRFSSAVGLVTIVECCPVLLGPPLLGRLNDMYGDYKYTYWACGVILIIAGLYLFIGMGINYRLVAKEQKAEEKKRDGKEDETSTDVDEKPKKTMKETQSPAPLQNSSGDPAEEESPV

[18] = neutral fraction at perfusion fluid pH 7.40, calculated from pKa
[19] = ref Hansch et al. [123], Avdeef [46] or other sources
[20] = LAT1 substrates, tracer concentration
[21] = LAT1 substrates, tracer concentration, perfusion 15-30 s

Sequence of Lat-1 (Q63016 whole entry): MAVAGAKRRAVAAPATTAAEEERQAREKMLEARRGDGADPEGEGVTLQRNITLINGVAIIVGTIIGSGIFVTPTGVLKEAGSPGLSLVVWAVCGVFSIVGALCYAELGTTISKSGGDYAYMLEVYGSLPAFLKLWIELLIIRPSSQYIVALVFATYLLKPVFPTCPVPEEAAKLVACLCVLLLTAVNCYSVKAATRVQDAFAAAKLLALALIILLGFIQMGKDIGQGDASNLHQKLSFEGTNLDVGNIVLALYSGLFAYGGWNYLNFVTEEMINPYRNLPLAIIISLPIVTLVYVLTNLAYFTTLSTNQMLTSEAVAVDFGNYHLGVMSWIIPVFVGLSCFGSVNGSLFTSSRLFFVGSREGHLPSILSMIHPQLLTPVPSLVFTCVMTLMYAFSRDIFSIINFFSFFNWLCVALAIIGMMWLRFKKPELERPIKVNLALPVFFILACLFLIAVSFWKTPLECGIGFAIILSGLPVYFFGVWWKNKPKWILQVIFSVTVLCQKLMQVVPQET
Sequence of Lat-1 (Q794F9 whole entry partner): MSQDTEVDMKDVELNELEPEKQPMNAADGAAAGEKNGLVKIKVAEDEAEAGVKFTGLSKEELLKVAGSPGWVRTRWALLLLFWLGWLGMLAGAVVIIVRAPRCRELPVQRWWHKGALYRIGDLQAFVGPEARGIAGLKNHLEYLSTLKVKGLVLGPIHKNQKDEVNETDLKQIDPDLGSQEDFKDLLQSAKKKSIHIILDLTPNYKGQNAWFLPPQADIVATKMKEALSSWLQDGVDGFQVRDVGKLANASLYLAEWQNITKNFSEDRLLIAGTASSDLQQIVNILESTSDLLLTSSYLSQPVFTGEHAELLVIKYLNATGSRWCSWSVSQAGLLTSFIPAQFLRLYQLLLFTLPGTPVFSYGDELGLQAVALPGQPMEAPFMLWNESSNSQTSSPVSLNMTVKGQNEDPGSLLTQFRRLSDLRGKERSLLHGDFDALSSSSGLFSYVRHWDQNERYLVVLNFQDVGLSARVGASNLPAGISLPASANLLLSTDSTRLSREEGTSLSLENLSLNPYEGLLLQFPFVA
Sequence of MCT8 L-T3 Transporter (Q8K1P8 whole entry): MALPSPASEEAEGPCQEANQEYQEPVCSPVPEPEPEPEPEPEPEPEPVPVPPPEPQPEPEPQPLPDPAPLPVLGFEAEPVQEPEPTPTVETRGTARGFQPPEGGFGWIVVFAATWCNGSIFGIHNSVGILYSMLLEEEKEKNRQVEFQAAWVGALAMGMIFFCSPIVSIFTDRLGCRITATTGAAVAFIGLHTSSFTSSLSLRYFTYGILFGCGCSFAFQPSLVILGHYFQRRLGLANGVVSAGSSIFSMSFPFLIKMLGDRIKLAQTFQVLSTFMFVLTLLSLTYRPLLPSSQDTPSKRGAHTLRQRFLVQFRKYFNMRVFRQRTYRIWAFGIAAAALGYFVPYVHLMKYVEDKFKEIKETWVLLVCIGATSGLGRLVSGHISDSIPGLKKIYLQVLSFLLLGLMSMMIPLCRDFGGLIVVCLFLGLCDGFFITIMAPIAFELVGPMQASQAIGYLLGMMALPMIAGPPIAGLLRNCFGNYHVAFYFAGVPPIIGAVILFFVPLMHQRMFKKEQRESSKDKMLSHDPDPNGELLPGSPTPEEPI

Compound: Cc1cc(=O)n(-c2ccccc2)n1C [Antipyrine]
- fn (%) [1, 18]: 100%
- half-life ([2]; brain): 0.93 min
- Brain Kin (calculated at brain blood flow […] and rat serum fu): 0.0143 mL/s/g
- Extraction (unbound) (calculated at brain blood flow […], free drug): 62.7%
- Brain vascular extraction (total) (calculated at brain blood flow […], with rat serum fu): 59.7%
- brain vascular PS [3]: 0.02 to 0.025 mL/s/g
- half-life [4]: 1 min
- fu,.p ([5]; rat in vivo measurements): 0.92
- Brain Vu,br [6]: 1.25 mL/g

Compound: CCC1(CC)C(=O)NC(=O)NC1=O [Barbital]
- fn (%) [1, 18]: 79.9%
- half-life [2]: 3.63 min
- half-life ([2]; plasma): 3.6 min
- Log Pc ([7]; in vivo, pH 7.4): −4.42
- Log PoS ([7]; in vivo, pH 7.4): −2.32
- Pc ([7]; in vivo, pH 7.4): 38.1 ×10⁻⁶ cm/s
- PcS ([7]; in vivo, pH 7.4): 0.0038 mL/s/g
- PoS ([7]; in vivo, pH 7.4): 0.00477 mL/s/g
- Log Po ([7]; in vivo, pH 7.4): −4.32
- Po ([7]; in vivo, pH 7.4): 47.7 ×10⁻⁶ cm/s
- Log Poct [8, 19]: 0.65
- Log Doct pH=7.4 [8, 19]: 0.64
- Brain Equilibration t1/2, Measured [9]: 3.27 min
- fu,.p ([5]; rat in vivo measurements): 0.985

Compound: C[N+](C)(C)CCO [Choline]
- Log PS [10]: −2.89
- PS ([10]; S 20 s): 0.0013 mL/s/g
- Log Doct 7.4 [11]: −3.70

Compound: OC[C@H]1OC(O)[C@H](O)[C@@H](O)[C@@H]1O (stereo partly drawn) [D-Glucose]
- Log PS ([12]; GLUT1): −2.16
- PS ([12]; GLUT1, S 16 s): 0.00694 mL/s/g
- Log Doct 7.4 [13]: −1.88

Compound: CN1C(=O)CN=C(c2ccccc2)c2cc(Cl)ccc21 [Diazepam]
- fn (%) ([1]; pH 7.4): 100%
- PS for liver membrane [14]: 0.4 mL/s/g

Compound: OCCO [Ethylene glycol]
- fn (%) ([1]; pH 7.4): 100%
- E of permeability markers [7]: 2–4%
- BBB PS / PoS over the flow range ([7]; in vivo): 4 - 7x 10^-4
- Log Pc ([7]; in vivo): −5.24
- Log PoS ([7]; in vivo): −3.24
- PS Average used for normalization ([7]; in vivo): 0.0006 mL/s/g
- Pc ([7]; in vivo): 5.69 ×10⁻⁶ cm/s
- PcS ([7]; in vivo): 0.00057 mL/s/g
- PoS ([7]; in vivo): 0.000569 mL/s/g
- PoS, flow-corrected ([7]; in vivo): 3–6 10^–4 mL/s/g
- Log Po ([7]; in vivo): −5.24
- Po ([7]; in vivo): 5.69 ×10⁻⁶ cm/s
- Brain Equilibration t1/2, Calculated (plasma): 21 min
- Log Doct pH=7.4 [8]: −1.36
- Brain Equilibration t1/2, Measured [9]: 17 min
- fu,.p ([5]; rat): 1.00

Compound: CNC[C@H](N)C(=O)O [L-BMAA]
- LogPS [15, 20]: −3.27
- PS [15, 21]: 0.000542 mL/s/g
- Log Doct 7.4 [11]: −3.4
- Log Poct [11]: −0.85

Compound: N[C@@H](Cc1ccc(O)c(O)c1)C(=O)O [L-DOPA]
- LogPS [15, 20]: −1.99
- PS [15, 21]: 0.0102 mL/s/g
- Log Doct 7.4 [11]: −2.7
- Log Poct [11]: −0.22

Compound: CC(C)C[C@H](N)C(=O)O [L-Leucine]
- LogPS [15, 20]: −1.45
- PS [15, 21]: 0.0354 mL/s/g
- Log Doct 7.4 [11]: 0.73

Compound: N[C@@H](Cc1ccccc1)C(=O)O [L-Phenylalanine]
- LogPS [15, 20]: −1.108
- PS [15, 21]: 0.078 mL/s/g
- Log Doct 7.4 [11]: −1.46
- Log Poct [11]: 1.110

Compound: N[C@@H](Cc1cc(I)c(Oc2ccc(O)c(I)c2)c(I)c1)C(=O)O [L-T3]
- PS [16]: 0.0146 mL/s/g

Compound: CCCC(C)C1(CC)C(=O)NC(=O)NC1=O (centres unmarked) [Pentobarbital]
- fn (%) [1, 18]: 75.1%
- half-life [2]: 1.44 min
- half-life ([2]; plasma): 1.4 min
- Log Pc ([7]; in vivo, pH 7.4): −3.35
- Log PoS ([7]; in vivo, pH 7.4): −1.22
- Pc ([7]; in vivo, pH 7.4): 450 ×10⁻⁶ cm/s
- PcS ([7]; in vivo, pH 7.4): 0.045 mL/s/g
- PoS ([7]; in vivo, pH 7.4): 0.0599 mL/s/g
- Log Po ([7]; in vivo, pH 7.4): −3.22
- Po ([7]; in vivo, pH 7.4): 599 ×10⁻⁶ cm/s
- half-life [4]: 1.15 min
- Log Poct [8, 19]: 2.08
- Log Doct pH=7.4 [8, 19]: 2.01
- fu,.p ([5]; rat in vivo measurements): 0.60

Compound: CC(C)C[C@H](CN)CC(=O)O [Pregabalin]
- LogPS ([15]; rat, in vivo, pH 7.4): −3.01
- PS ([15]; rat, in vivo, pH 7.4): 0.000976 mL/s/g
- Log Doct 7.4 [11]: −1.75
- Log Poct [11]: 1.12

Compound: L-Lactate
- PS [17]: 0.00125 mL/s/g
- Log Doct 7.4 [11]: −0.70
